Experimental data as given in patent US20250049029A1, “Agrochemical Compositions” (priority 2021, published 2025).

Legend:
[1] = Micrographic check for crystals after combining active ingredient with permeable S-metolachlor capsule suspension; format: physicochemical
Protocol: During further testing, Composition 2 was made with metribuzin being the only active ingredient (i.e., S-metolachlor and mesotrione were not present). An image, at 50-micron scale bar, is provided at FIG. 4A. To this formulation, the capsule suspension used in Composition 2 was added.
Further testing was done by replacing the metribuzin with sulfentrazone. In these tests sulfentrazone technical (powder, Dv(95)=307 microns) was added to a composition the CS of Composition 2 at a ratio of S-metolachlor:sulfentrazone of 10:0.8, and mixed for 1 hour at 30° C. to provide additional solubilization over room temperature.

[2] = Particle size and wet sieve residue of S-metolachlor CS mixed with sulfentrazone technical; format: physicochemical; settings: single component, before mixing
Protocol: Additional testing was done using two jars with S-metolachlor CS of Composition 2 and 8% sulfentrazone technical at a ratio of […]. One was mixed at room temperature and one at 30° C. for 1 hour.

Structure (SMILES) | metribuzin crystals visible ([1]; Composition 2 made with metribuzin as only active ingredient, after adding the capsule suspension used in Composition 2, FIG. 4B) | sulfentrazone crystals observed ([1]; sulfentrazone technical added to CS of Composition 2, S-metolachlor:sulfentrazone 10:0.8, mixed 1 hour at 30° C., FIG. 5) | Dv(95) ([1]; sulfentrazone technical powder, before addition) | Dv(50) [2] | Dv(95) [2]
CSc1nnc(C(C)(C)C)c(=O)n1N [metribuzin, Metribuzin] | no metribuzin crystals appeared visible | – | – | – | –
Cc1nn(-c2cc(NS(C)(=O)=O)c(Cl)cc2Cl)c(=O)n1C(F)F [sulfentrazone, Sulfentrazone] | – | no sulfentrazone crystals were observed | 307 microns | 30.3 | 307
